The target of series [1] is Polymerase acidic protein (Influenza A virus (A/Puerto Rico/8/1934(H1N1)), UniProt P03433). Kind of series: Inhibition of influenza A virus (A/PR/8/34) N-terminal PA endonuclease using 880 nucleotide ALMV cap1 primer RNA as substrate.
The nature of series [2]: Inhibition of recombinant influenza A virus A/X-31 N-terminal 6His tagged-PA endonuclease (1 to 217 residues) expressed in Escherichia coli BL21-CodonPlus cells after 2 hrs using single stranded circular DNA plasmid M13mp18 as substrate by ethidium bromide staining based agarose gel electrophoresis. Further details: species or system Influenza A virus (A/X-31(H3N2)).
Series [3] concerns Influenza A virus. Briefly: Antiviral activity against influenza A virus (A/PR/8/34) infected in HEK293 cells after 24 hrs by firefly luciferase reporter gene based vRNP-reconstitution assay. The format is functional, cell-based. The note with it: A/Puerto Rico/8/1934(H1N1), HEK293, 24 h.
Series [4] in a line: Cytotoxicity against HEK293 cells assessed as reduction in cell viability by MTS assay. The format is cell-based. The note with it: human.
Series [5] can be described thus: Antiviral activity against influenza A virus (A/WSN/33 (H1N1)) infected in MDCK cells after 48 hrs by crystal violet staining based plaque reduction assay. The class given is functional, cell-based, Influenza A virus (A/WSN/1933(H1N1)).
Series [6] in a line: Cytotoxicity against MDCK cells assessed as reduction in cell viability after 48 hrs by WST-1 assay. The format is cell-based, Canis lupus familiaris. The note with it: dog.
The subject of series [7] is Influenza A virus. Kind of series: Antiviral activity against influenza A virus (A/PR/8/34) infected in MDCK cells assessed as reduction in viral yield incubated for 30 mins prior to infection measured after 24 hrs by plaque reduction assay. The format is functional, cell-based. The note with it: A/Puerto Rico/8/1934(H1N1).
Series [8] concerns Influenza A virus. Briefly: Antiviral activity against influenza A virus. The format is functional.
Series [9] can be described thus: Inhibition of recombinant influenza A virus A/X-31 N-terminal 6His tagged-PA endonuclease (1 to 217 residues) expressed in Escherichia coli BL21-CodonPlus cells after 1 hr using single stranded circular DNA plasmid M13mp18 as substrate by ethidium bromide staining based agarose gel electrophoresis. Further details: species or system Influenza A virus (A/X-31(H3N2)).

A short description of series [10]: Inhibition of influenza A virus N-terminal PA endonuclease.
Series [11] in a line: Binding affinity to influenza A virus PA endonuclease by isothermal titration calorimetry.
Series [12] in a line: Antiviral activity against influenza A virus (A/HK/415742/09(H1N1)) infected in MDCK cells by plaque reduction assay. The format is functional, cell-based, Influenza A virus (A/Hong Kong/415742/2009(H1N1)).
The nature of series [13]: Cytotoxicity against MDCK cells by MTT assay. The format is cell-based, Canis lupus familiaris. The note with it: dog.
A short description of series [14]: Inhibition of recombinant influenza A virus A/X-31 N-terminal PA endonuclease (1 to 217 residues) after 2 hrs using single stranded circular DNA plasmid M13mp18 as substrate by ethidium bromide staining based agarose gel electrophoresis. Further details: species or system Influenza A virus (A/X-31(H3N2)).
For series [15], the system named is Influenza A virus. Briefly: Antiviral activity against influenza A virus ((A/PR/8/34) infected in MDCK cells assessed as reduction in viral yield after 24 hrs by qRT-PCR assay. The format is functional. The note with it: A/Puerto Rico/8/1934(H1N1).
Series [16] is described as follows: Cytotoxicity against MDCK cells assessed as reduction in cell viability after 24 hrs by MTS assay. The class given is cell-based, Canis lupus familiaris. The note with it: dog.
Series [17] in a line: Cytotoxicity against HEK293 cells assessed as reduction in cell viability after 24 hrs by MTS assay. The class given is cell-based. The note with it: human.
Series [18] relates to Influenza A virus. Briefly: Antiviral activity against influenza A virus infected in HEK293 cells after 24 hrs by firefly luciferase reporter gene based vRNP-reconstitution assay. The format is functional, cell-based. The note with it: HEK293, 24 h.
Series [19] deals with Influenza A virus. Kind of series: Antiviral activity against influenza A virus H1N1 infected in MDCK cells assessed as reduction of virus-induced cytopathic effect after 48 hrs by CellTiter-Glo luminescent assay. The class given is functional, cell-based.
A further series concerns Influenza A virus (H1N1). Kind of series: Antiviral activity against influenza A virus H1N1-pdm09 infected in MDCK cells assessed as reduction of virus-induced cytopathic effect after 48 hrs by CellTiter-Glo luminescent assay. The format is functional, cell-based.
For another series, the system named is Influenza A virus H3N2. Briefly: Antiviral activity against influenza A virus H3N2 infected in MDCK cells assessed as reduction of virus-induced cytopathic effect after 48 hrs by CellTiter-Glo luminescent assay. The format is functional, cell-based.
A further series concerns H5N1 subtype. Briefly: Antiviral activity against influenza A virus H5N1 infected in MDCK cells assessed as reduction of virus-induced cytopathic effect after 48 hrs by CellTiter-Glo luminescent assay. The format is functional, cell-based.
A short description of series [20]: Antiviral activity against influenza A virus H7N9 infected in MDCK cells assessed as reduction of virus-induced cytopathic effect after 48 hrs by CellTiter-Glo luminescent assay. The class given is functional, cell-based, H7N9 subtype.
A short description of series [21]: Antiviral activity against influenza A virus H9N2 infected in MDCK cells assessed as reduction of virus-induced cytopathic effect after 48 hrs by CellTiter-Glo luminescent assay. The format is functional, cell-based, H9N2 subtype.
Series [22] has as its system Influenza B virus. Kind of series: Antiviral activity against influenza B virus infected in MDCK cells assessed as reduction of virus-induced cytopathic effect after 48 hrs by CellTiter-Glo luminescent assay. The format is functional, cell-based.
Series [23] can be described thus: Cytotoxicity against MDCK cells assessed as reduction in cell viability after 48 hrs in serum free conditions by CellTiter-Glo luminescent assay. The format is cell-based, Canis lupus familiaris. The note with it: dog.
Series [24] can be described thus: Cytotoxicity against MDCK cells assessed as reduction in cell viability after 48 hrs in presence of 5 % serum by CellTiter-Glo luminescent assay. The class given is cell-based, Canis lupus familiaris. The note with it: dog.
Series [25] in a line: Antiviral activity against influenza A virus (A/Chile/1/83) infected in MDCK cells after 2 to 3 days by crystal violet staining based plaque reduction assay. The class given is functional, cell-based, Influenza A virus (A/Chile/1/1983(H1N1)).
The nature of series [26]: Antiviral activity against influenza A virus (A/Sydney/5/97) infected in MDCK cells after 2 to 3 days by crystal violet staining based plaque reduction assay. The class given is functional, cell-based, Influenza A virus (A/Sydney/5/1997(H3N2)).
The subject of series [27] is Influenza B virus. Kind of series: Antiviral activity against influenza B virus (B/Yamagata/16/88) infected in MDCK cells after 2 to 3 days by crystal violet staining based plaque reduction assay. The class given is functional, cell-based. The note with it: B/Yamagata/16/1988, MDCK.
Series [28] is described as follows: Cytotoxicity against MDCK cells after 48 hrs by MTT assay. The format is cell-based, Canis lupus familiaris. The note with it: dog.

Bounds are passed on as bounds.

Consider `CC(C)/C=C1\N=C(CC(C)C)C(=O)N(O)C1=O`, for which the half-inhibitory concentration (IC50) in series [1] was 5.1 to 5.5 µM.

In the case of `NC(=S)N/N=C/c1cccc(O)c1O`, the IC50 in [2] amounted to 37 µM. For the same compound, the half-maximal effective concentration (EC50) in the series on Influenza A virus [3] was 63 µM. Moreover, the cytotoxic concentration (CC50) in series [4] was greater than 200 µM.

In series [5], `OC(CN1CCCCC1)Cn1c2c(c3ccccc31)CCCC2` (stereo unspecified) showed an EC50 of 36.5 µM. For the same compound, the 50% cytotoxic concentration (CC50) at 48 h in series [6] is greater than 200 µM.

For `O=C(O)/C(O)=C/C(=O)C1(Cc2ccc(Cl)cc2)CCN(CC2CCCCC2)CC1`, in the series with Influenza A virus [7], the EC50 was 0.18 to 0.71 µM.

`CC(=O)Nc1cccc(-c2nc(C(=O)O)c(O)c(=O)[nH]2)c1`: in the series with Influenza A virus [8], the EC50 was greater than 50 µM.

Compound `Cn1cnc(-c2nc(C(=O)O)c(O)c(=O)[nH]2)c1` returned a half-maximal effective concentration (EC50) with Influenza A virus [8] greater than 50 µM.

As to `O=C(O)/C(O)=C/C(=O)C1(Cc2ccc(Cl)cc2)CCN(Cc2ccc(Cl)cc2)CC1`, the concentration giving a half-maximal response (EC50) with Influenza A virus [7] was in the range of 0.18 to 0.71 µM.

For the compound `O=C(O)/C(O)=C/C(=O)C1(Cc2ccc(Cl)cc2)CCCN(Cc2ccccc2)C1` (stereo unspecified), the 50% effective concentration (EC50) in the series with Influenza A virus [7] lay within 0.18 to 0.71 µM.

With `O=C(O)/C(O)=C/C(=O)C1(Cc2ccc(Cl)cc2)CCCN(S(=O)(=O)Cc2ccccc2)C1` (stereo unspecified), the concentration giving a half-maximal response (EC50) in the series with Influenza A virus [7] lay in the range of 0.18 to 0.71 µM.

For `O=C(NCc1ccc(F)cc1)c1cccc(O)c1O`, the half-maximal inhibitory concentration (IC50) in series [9] turned out to be 33 µM.

With `O=c1[nH]cc(Br)cc1O`, it took 16 µM to reach half-maximal inhibition in series [10] (IC50).

In series [11], `CN(C)c1ccc(/C=C2\C/C(=N\N=C3\C(=O)Nc4ccccc43)NC2=O)cc1` gave a Kd of 1.3 µM. Besides, the EC50 in series [12] is 1.5 µM. The half-maximal cytotoxic concentration (CC50) in series [13] is greater than 300 µM.

Turning to `O=C(N/N=C/c1cc(O)c(O)c(O)c1)c1cc(O)c(O)c(O)c1`, the IC50 in [14] amounted to 8.7 µM. The 90% effect concentration (EC90) with Influenza A virus [15] is 3.5 µM. Further, the CC50 at 24 h in series [16] and in [17] was greater than 200 µM throughout. Moreover, it took 3.1 µM to reach a half-maximal effect with Influenza A virus [18] (EC50).

In series [11], `O=C1Nc2ccccc2/C1=N\N=C1/C/C(=C2\C(=O)Nc3ccccc32)C(=O)N1` yielded an equilibrium dissociation constant (Kd) of 1.1 µM. In addition, the EC50 in [12] was determined as 0.8 µM. This compound also gave a CC50 in [13] greater than 400 µM.

On to `NC(=O)N/N=C/c1cccc(O)c1O`, for which the half-inhibitory concentration (IC50) in series [2] is 24 µM. Besides, a half-maximal effect in the series with Influenza A virus [3] (EC50) was put at 107 µM. Also, in [4], the CC50 is greater than 200 µM.

Take `C[C@@H](N1CN([C@H]2c3ccccc3CSc3ccccc32)n2ccc(=O)c(O)c2C1=O)C(F)(F)F`: the EC50 is 0.0083 µM in the series with Influenza A virus [19]; 0.007 µM in the series with Influenza A virus (H1N1); 0.0085 µM in the series on Influenza A virus H3N2; 0.0139 µM with H5N1 subtype; 0.0154 µM in series [20]; 0.0122 µM in [21]. Moreover, the EC50 in the series with Influenza B virus [22] turned out to be 0.0128 µM. The results for the cytotoxic concentration (CC50) at 48 h in series [23] and in series [24] were 11.9 µM and 86.2 µM, respectively.

Turning to `O=C(O)/C(O)=C/C(=O)c1cccn1Cc1ccc(F)cc1`, the half-inhibitory concentration (IC50) in series [2] was found to be 0.8 µM.

Consider `O=C(O[C@@H]1Cc2c(O)cc(O)cc2O[C@@H]1c1ccc(O)c(O)c1)c1cc(O)c(O)c(O)c1` [EPICATECHIN GALLATE], for which the EC50 was found to be 26.4 µM in series [25], 22.2 µM in series [26] and 40.4 µM in the series with Influenza B virus [27]. In [28], this compound had a CC50 at 48 h of 526 µM.

Consider `O=C(O[C@@H]1Cc2c(O)cc(O)cc2O[C@@H]1c1cc(O)c(O)c(O)c1)c1cc(O)c(O)c(O)c1` [EPIGALOCATECHIN GALLATE], for which the results for the half-maximal effective concentration (EC50) (in series [25]; in series [26]; in the series with Influenza B virus [27]) were 28.4 µM, 22.8 µM and 26.1 µM, respectively. This compound had a cytotoxic concentration (CC50) at 48 h in series [28] of 275 µM.

For the origin of these results see ChEMBL document CHEMBL4007398, “Inhibitors of Influenza Virus Polymerase Acidic (PA) Endonuclease: Contemporary Developments and Perspectives” (J Med Chem, 2017).
